Experimental data from PMC3491841 (EMBO Molecular Medicine, 2012).

Legend:
Type in all cases: binding
[1] = target: T1, LdTOP1L (large subunit of L. donovani topoisomerase IB) (Leishmania donovani, UniProt A0A3Q8IHS4); experiment: intrinsic tryptophan fluorescence quenching
T1 sequence (A0A3Q8IHS4 1-635): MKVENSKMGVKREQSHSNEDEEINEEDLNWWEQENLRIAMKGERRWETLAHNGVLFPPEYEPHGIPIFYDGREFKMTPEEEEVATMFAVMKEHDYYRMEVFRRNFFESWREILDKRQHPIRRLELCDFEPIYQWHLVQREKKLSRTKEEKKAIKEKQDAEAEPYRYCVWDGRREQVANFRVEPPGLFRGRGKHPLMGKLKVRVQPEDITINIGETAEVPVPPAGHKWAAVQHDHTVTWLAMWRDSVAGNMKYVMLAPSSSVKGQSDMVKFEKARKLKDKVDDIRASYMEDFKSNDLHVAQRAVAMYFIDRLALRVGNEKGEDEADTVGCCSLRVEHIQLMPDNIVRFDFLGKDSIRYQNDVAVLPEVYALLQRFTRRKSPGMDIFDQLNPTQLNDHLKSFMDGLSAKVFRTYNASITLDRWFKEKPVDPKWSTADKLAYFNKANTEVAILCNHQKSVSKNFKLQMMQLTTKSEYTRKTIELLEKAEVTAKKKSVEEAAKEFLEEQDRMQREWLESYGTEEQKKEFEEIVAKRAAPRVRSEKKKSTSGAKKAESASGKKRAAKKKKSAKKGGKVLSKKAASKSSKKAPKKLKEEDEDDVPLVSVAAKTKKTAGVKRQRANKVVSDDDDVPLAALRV

[2] = target: T2, LdTOP1LS (reconstituted heterodimeric topoisomerase IB) (Leishmania donovani, UniProt A0A3Q8IHS4+Q8WQM6); experiment: tryptophan fluorescence quenching
T2 sequence (A0A3Q8IHS4 1-635): T1 sequence (A0A3Q8IHS4 1-635)
T2 sequence (Q8WQM6 1-262): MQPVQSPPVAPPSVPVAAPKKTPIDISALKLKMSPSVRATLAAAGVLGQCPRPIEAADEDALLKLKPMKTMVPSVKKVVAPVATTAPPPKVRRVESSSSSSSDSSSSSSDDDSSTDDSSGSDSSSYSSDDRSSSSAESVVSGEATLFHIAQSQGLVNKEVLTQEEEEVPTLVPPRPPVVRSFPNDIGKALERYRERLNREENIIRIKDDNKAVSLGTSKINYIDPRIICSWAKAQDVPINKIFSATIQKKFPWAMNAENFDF

[3] = target: T3, LdTOP1S (small subunit of L. donovani topoisomerase IB) (Leishmania donovani, UniProt Q8WQM6); experiment: intrinsic tryptophan fluorescence quenching
T3 sequence (Q8WQM6 1-262): T2 sequence (Q8WQM6 1-262)

Kd [1]: 372 ± 260 nM
Kd [2]: 299 ± 160 nM
Kd [3]: 169 ± 120 nM
SMILES: COC[C@@H](Cc1ccc(OC)c(OC)c1)[C@@H](COC)Cc1cc(OC)c2c(c1)OCO2 [niranthin]
